PubChem BioAssay (NCI)
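Briefly, cells in 96-well plates were exposed to five compound concentrations for 48 h, and endpoints were estimated by linear interpolation. At the TGI there is no net growth.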

Experiments:
Assay in all cases: NCI-60 cell line screen, 48 h
786-0 renal = tested on: 786-0 renal
A549 NSCLC = tested on: A549 NSCLC
ACHN renal = tested on: ACHN renal
CCRF-CEM leukemia = tested on: CCRF-CEM leukemia
COLO 205 colon = tested on: COLO 205 colon
DLD-1 colon = tested on: DLD-1 colon
DMS 114 small cell lung = tested on: DMS 114 small cell lung
DMS 273 small cell lung = tested on: DMS 273 small cell lung
HCC-2998 colon = tested on: HCC-2998 colon
HCT-116 colon = tested on: HCT-116 colon
HCT-15 colon = tested on: HCT-15 colon
HL-60(TB) leukemia = tested on: HL-60(TB) leukemia
HOP-62 NSCLC = tested on: HOP-62 NSCLC
HOP-92 NSCLC = tested on: HOP-92 NSCLC
HT29 colon = tested on: HT29 colon
IGROV1 ovarian = tested on: IGROV1 ovarian
K-562 leukemia = tested on: K-562 leukemia
KM12 colon = tested on: KM12 colon
KM20L2 colon = tested on: KM20L2 colon
LOX IMVI melanoma = tested on: LOX IMVI melanoma
LXFL 529 NSCLC = tested on: LXFL 529 NSCLC
M14 melanoma = tested on: M14 melanoma
M19-MEL melanoma = tested on: M19-MEL melanoma
MALME-3M melanoma = tested on: MALME-3M melanoma
MOLT-4 leukemia = tested on: MOLT-4 leukemia
NCI-H226 lung = tested on: NCI-H226 lung
NCI-H460 lung = tested on: NCI-H460 lung
NCI-H522 lung = tested on: NCI-H522 lung
OVCAR-3 ovarian = tested on: OVCAR-3 ovarian
OVCAR-4 ovarian = tested on: OVCAR-4 ovarian
OVCAR-5 ovarian = tested on: OVCAR-5 ovarian
OVCAR-8 ovarian = tested on: OVCAR-8 ovarian
RPMI-8226 leukemia = tested on: RPMI-8226 leukemia
SF-268 CNS = tested on: SF-268 CNS
SF-539 CNS = tested on: SF-539 CNS
SK-MEL-2 melanoma = tested on: SK-MEL-2 melanoma
SK-MEL-28 melanoma = tested on: SK-MEL-28 melanoma
SK-MEL-5 melanoma = tested on: SK-MEL-5 melanoma
SK-OV-3 ovarian = tested on: SK-OV-3 ovarian
SN12C renal = tested on: SN12C renal
SNB-19 CNS = tested on: SNB-19 CNS
SNB-78 CNS = tested on: SNB-78 CNS
SR leukemia = tested on: SR leukemia
SW-620 colon = tested on: SW-620 colon
TK-10 renal = tested on: TK-10 renal
U251 CNS = tested on: U251 CNS
UACC-62 melanoma = tested on: UACC-62 melanoma
UO-31 renal = tested on: UO-31 renal
A498 renal = tested on: A498 renal
CAKI-1 renal = tested on: CAKI-1 renal
EKVX NSCLC = tested on: EKVX NSCLC
HOP-18 NSCLC = tested on: HOP-18 NSCLC
NCI-H23 lung = tested on: NCI-H23 lung
RXF 393 renal = tested on: RXF 393 renal
SF-295 CNS = tested on: SF-295 CNS
SNB-75 CNS = tested on: SNB-75 CNS
UACC-257 melanoma = tested on: UACC-257 melanoma

SMILES: COc1cc(C(=O)O)cc2c1[nH]c1ccccc12
- TGI (786-0 renal): > 25 µM
- TGI (A549 NSCLC): > 25 µM
- TGI (ACHN renal): > 25 µM
- TGI (CCRF-CEM leukemia): > 25 µM
- TGI (COLO 205 colon): > 25 µM
- TGI (DLD-1 colon): > 25 µM
- TGI (DMS 114 small cell lung): > 25 µM
- TGI (DMS 273 small cell lung): > 25 µM
- TGI (HCC-2998 colon): > 25 µM
- TGI (HCT-116 colon): > 25 µM
- TGI (HCT-15 colon): > 25 µM
- TGI (HL-60(TB) leukemia): > 25 µM
- TGI (HOP-62 NSCLC): > 25 µM
- TGI (HOP-92 NSCLC): > 25 µM
- TGI (HT29 colon): > 25 µM
- TGI (IGROV1 ovarian): > 25 µM
- TGI (K-562 leukemia): > 25 µM
- TGI (KM12 colon): > 25 µM
- TGI (KM20L2 colon): > 25 µM
- TGI (LOX IMVI melanoma): > 25 µM
- TGI (LXFL 529 NSCLC): > 25 µM
- TGI (M14 melanoma): > 25 µM
- TGI (M19-MEL melanoma): > 25 µM
- TGI (MALME-3M melanoma): > 25 µM
- TGI (MOLT-4 leukemia): > 25 µM
- TGI (NCI-H226 lung): > 25 µM
- TGI (NCI-H460 lung): > 25 µM
- TGI (NCI-H522 lung): > 25 µM
- TGI (OVCAR-3 ovarian): > 25 µM
- TGI (OVCAR-4 ovarian): > 25 µM
- TGI (OVCAR-5 ovarian): > 25 µM
- TGI (OVCAR-8 ovarian): > 25 µM
- TGI (RPMI-8226 leukemia): > 25 µM
- TGI (SF-268 CNS): > 25 µM
- TGI (SF-539 CNS): > 25 µM
- TGI (SK-MEL-2 melanoma): > 25 µM
- TGI (SK-MEL-28 melanoma): > 25 µM
- TGI (SK-MEL-5 melanoma): > 25 µM
- TGI (SK-OV-3 ovarian): > 25 µM
- TGI (SN12C renal): > 25 µM
- TGI (SNB-19 CNS): > 25 µM
- TGI (SNB-78 CNS): > 25 µM
- TGI (SR leukemia): > 25 µM
- TGI (SW-620 colon): > 25 µM
- TGI (TK-10 renal): > 25 µM
- TGI (U251 CNS): > 25 µM
- TGI (UACC-62 melanoma): > 25 µM
- TGI (UO-31 renal): > 25 µM

SMILES: CC(C)NC1CCCCC2c3cc(F)ccc3[C@]12O (stereo partly drawn)
- TGI (786-0 renal): > 100 µM
- TGI (A498 renal): > 100 µM
- TGI (A549 NSCLC): > 100 µM
- TGI (ACHN renal): > 100 µM
- TGI (CAKI-1 renal): > 100 µM
- TGI (CCRF-CEM leukemia): > 100 µM
- TGI (COLO 205 colon): > 100 µM
- TGI (DLD-1 colon): > 100 µM
- TGI (DMS 114 small cell lung): > 100 µM
- TGI (DMS 273 small cell lung): > 100 µM
- TGI (EKVX NSCLC): > 100 µM
- TGI (HCC-2998 colon): > 100 µM
- TGI (HCT-116 colon): > 100 µM
- TGI (HCT-15 colon): > 100 µM
- TGI (HL-60(TB) leukemia): > 100 µM
- TGI (HOP-18 NSCLC): > 100 µM
- TGI (HOP-62 NSCLC): > 100 µM
- TGI (HT29 colon): > 100 µM
- TGI (IGROV1 ovarian): > 100 µM
- TGI (K-562 leukemia): > 100 µM
- TGI (KM12 colon): > 100 µM
- TGI (KM20L2 colon): > 100 µM
- TGI (LOX IMVI melanoma): > 100 µM
- TGI (LXFL 529 NSCLC): > 100 µM
- TGI (M14 melanoma): > 100 µM
- TGI (M19-MEL melanoma): > 100 µM
- TGI (MALME-3M melanoma): > 100 µM
- TGI (MOLT-4 leukemia): > 100 µM
- TGI (NCI-H226 lung): > 100 µM
- TGI (NCI-H23 lung): > 100 µM
- TGI (NCI-H460 lung): > 100 µM
- TGI (NCI-H522 lung): > 100 µM
- TGI (OVCAR-3 ovarian): > 100 µM
- TGI (OVCAR-4 ovarian): > 100 µM
- TGI (OVCAR-5 ovarian): > 100 µM
- TGI (OVCAR-8 ovarian): > 100 µM
- TGI (RPMI-8226 leukemia): > 100 µM
- TGI (RXF 393 renal): > 100 µM
- TGI (SF-268 CNS): > 100 µM
- TGI (SF-295 CNS): > 100 µM
- TGI (SF-539 CNS): > 100 µM
- TGI (SK-MEL-2 melanoma): > 100 µM
- TGI (SK-MEL-28 melanoma): > 100 µM
- TGI (SK-MEL-5 melanoma): > 100 µM
- TGI (SK-OV-3 ovarian): > 100 µM
- TGI (SN12C renal): > 100 µM
- TGI (SNB-19 CNS): > 100 µM
- TGI (SNB-75 CNS): > 100 µM
- TGI (SNB-78 CNS): > 100 µM
- TGI (SW-620 colon): > 100 µM
- TGI (TK-10 renal): > 100 µM
- TGI (U251 CNS): > 100 µM
- TGI (UACC-257 melanoma): > 100 µM
- TGI (UACC-62 melanoma): > 100 µM
- TGI (UO-31 renal): > 100 µM
